The nature of data set [1]: Enteral absorption in vivo (rats): plasma level of the antibiotic after intraduodenal injection, agar plate bioassay. To be noted: rat, 20 mg/kg, enteral (duodenum), Dosis = 5 mg/0,5 ml. The procedure:
Weibliche Ratten im Gewicht von etwa 250 g wurden über Nacht fasten gelassen und mit Metofan anästhesiert. Die Antibiotika wurden in Lösung mit oder ohne Resorptionsverstärker nach Bauchschnitt in das Duodenum unterhalb des Magenausgangs injiziert. Für Vergleichszwecke wurde die Lösung alternativ intravenös in die Schwanzvene appliziert. Die Antibiotika wurden in Wasser gelöst, so dass die Lösungen (mit oder ohne Verstärker) 20 mg/kg, etwa 5 mg pro Ratte, enthielten.
Die Konzentration des Antibiotikums im Plasma der Ratte wurde nach verschiedenen Zeitintervallen nach intravenöser oder enteraler Verabreichung bestimmt. Blutproben wurden aus der Schwanzvene des Versuchstiers vor der Verabreichung des Antibiotikums und 5, 10, 20, 40, 60, 120, 240 und 360 Minuten danach entnommen, danach zentrifugiert und das Plasma bis zur Analyse eingefroren.
Antibiotika, die nicht an Plasma gebunden waren, wurden mit Wasser verdünnt und gegen in Wasser hergestellte Standards geprüft. Für gebundene Antibiotika wurde der Einfluss der Proteinbindung eliminiert durch Verdünnen aller Standardlösungen und Proben im gesammelten Plasma. Im Fall von Ceftriaxon und Cefazolin wurde der Effekt der Bindung dadurch berücksichtigt, dass Plasmaproben mit Acetonitril mit einem Verdünnungsfaktor 1:12 deproteinisiert und gegen eine Standardkurve in Wasser verdünnt gemessen wurden. Antibiotikaspiegel wurden wie in Tabelle 1 angegeben auf Agarplatten ermittelt. Tabelle 1
Die Platten wurden bei 37°C über Nacht bebrütet und die Hemmzonen auf die nächsten […] abgelesen. Die Berechnungen wurden mittels einer Autoassaymaschine (Giles Scientific, Inc., New York) vorgenommen. Vergleiche J.V. Bennett et al., Applied Microbiology 14, 170-177 (1966).

Data set [2] in a line: Oral absorption in vivo (monkeys): plasma concentration of Ceftriaxon after enteric-coated hard gelatin capsules by gavage. Particulars: Kontrollwert: 300 mg Ceftriaxon-Na in the same capsule without absorption enhancer. Set-up: species or system Papio anubis und Papio hamadryas. An excerpt:
Erwachsene Affen (Papio anubis und Papio hamadryas) im Gewicht von 12-30 kg wurden über Nacht fasten gelassen, dann durch i.m.-Injektion von Ketaminhydrochlorid vor der Verabreichung des Antibiotikums sediert. Jeder Affe erhielt vier Hartgelatinekapseln durch Schlundsonde mit der folgenden Zusammensetzung:
Die Kapseln waren mit einem Ueberzug von Polyvinylacetatphthalat (etwa 8% des Kapselgewichtes) versehen.
Die Plasmakonzentration von Ceftriaxon wurde vor der Verabreichung und 10, 20, 40, 60, 120, 180 und 240 Minuten danach bestimmt.

Data set [3] is described as follows: Rectal absorption in vivo (monkeys): plasma level of the antibiotic after suppository. To be noted: for Cmax: both sexes, monkey, plasma, read-out: Cmax Bereich. The source says: Für diesen Versuch wurden männliche und weibliche erwachsene Affen (Papio anubis und Papio hamadryas) im Gewicht vom 12-27 kg verwendet. die über Nacht vor der Verabreichung des Antibiotikums fasten gelassen wurden, dann durch i.m.-Injektionen von Ketamin-Hydrochlorid vor der Verabreichung des Antibiotikums sediert wurden. Aus den nachstehend beschriebenen Formulierungen wurden Suppositorien hergestellt die den Tieren verabreicht wurden. Die Rektalöffnungen wurden dann mit Klebeband verschlossen, um ein Herausdrücken der Suppositorienmasse zu vermeiden.
Zur Messung der Resorption des Antibiotikums in den Blutstrom wurden Blutproben aus der Femoralregion vor der Verabreichung des Antibiotikums und 15, 30, 60, 120, 240, 360 und 480 Minuten danach entnommen. Proben wurden zentrifugiert und wie oben beschrieben vermessen. Die Resultate sind in Tabelle 3 zusammengestellt: Tabelle 3

Setting [4] is: 500 mg, rectal suppository, Mit Resorptionsverstärker, Formulierung C (500 mg antibiotic, Labrasol 250 mg, Caprylsäure 200 mg).
Setting [5] is: rectal suppository, Mit Resorptionsverstärker, Formulierung D (500 mg antibiotic, Labrasol 250 mg, Caprylsäure 100 mg, Natriumcaprylat 100 mg).
Setting [6] is: rectal, Kontrolle ohne Resorptionsverstärker.
The mark [7] stands for this setting: rectal suppository, Mit Resorptionsverstärker, Formulierung C (500 mg antibiotic, Labrasol 250 mg, Caprylsäure 200 mg).

`CN[C@H](CC(C)C)C(=O)N[C@H]1C(=O)N[C@@H](CC(N)=O)C(=O)N[C@H]2C(=O)N[C@H]3C(=O)N[C@H](C(=O)N[C@H](C(=O)O)c4cc(O)cc(O)c4-c4cc3ccc4O)[C@H](O)c3ccc(c(Cl)c3)Oc3cc2cc(c3O[C@@H]2O[C@H](CO)[C@@H](O)[C@H](O)[C@H]2O[C@H]2C[C@](C)(N)[C@H](O)[C@H](C)O2)Oc2ccc(cc2Cl)[C@H]1O` [Vancomycin]: the peak concentration (Cmax) came to 5300 ± 2100 ng/mL in data set [1] (female, in vivo, Labrasol + Caprylsäure + Natriumcaprylat, weight ratio 4:1:1) and 8000 ± 2300 ng/mL in data set [1] (female, in vivo, Labrasol + Caprylsäure, weight ratio 2:1).
With `CO/N=C(\C(=O)N[C@@H]1C(=O)N2C(C(=O)O)=C(CSc3nc(=O)c(=O)[nH]n3C)CS[C@H]12)c1csc(N)n1` [Ceftriaxon-Na, Ceftriaxon-Natrium], the Bioverfügbarkeit in data set [2] was 0%.
As for `CO[C@@]1(NC(=O)C2SC(=C(C(N)=O)C(=O)O)S2)C(=O)N2C(C(=O)O)=C(CSc3nnnn3C)CS[C@@H]21` (some centres unmarked) [Cefotetan], the highest concentration (Cmax) fell in the range of 4300 to 21100 ng/mL in data set [3] (setting [4]), 2500 to 61500 ng/mL in data set [3] (setting [5]) and 2400 to 10100 ng/mL in data set [3] (setting [6]). The “% Bioverfügbarkeit” value stood at 11.4 ± 7.4% in data set [3] (setting [7]), 24.1 ± 12.8% in data set [3] (setting [5]) and 4.9 ± 3.1% in data set [3] (setting [6]). In addition, the “Cmax Bereich” value in data set [3] (rectal, Kontrolle ohne Resorptionsverstärker, listed as Cefotetran) lay in the range of 3400 to 10100 ng/mL.
For `CC1(C)S[C@@H]2[C@H](NC(=O)Cc3ccccc3)C(=O)N2[C@H]1C(=O)O` [Penicillin G], the Cmax in data set [1] (in vivo, Labrasol + Caprylsäure + Natriumcaprylat, weight ratio 4:1:1) is 2900 ± 1600 ng/mL; in data set [1] (in vivo, Labrasol + Caprylsäure, weight ratio 2:1) it was 7200 ± 700 ng/mL.
For the molecule `CO/N=C(\C(=O)N[C@@H]1C(=O)N2C(C(=O)O)=C(CSc3nc(=O)c(=O)[nH]n3C)CS[C@H]12)c1csc(N)n1` [Ceftriaxon], the Cmax was 52200 ± 22500 ng/mL in data set [1] (female, plasma, other: intraduodenal injection (enteral), Labrasol + Caprylsäure + Natriumcaprylat, weight ratio 4:1:1); 57000 ± 10200 ng/mL in data set [1] (female, plasma, other: intraduodenal injection (enteral), Labrasol + Caprylsäure, weight ratio 2:1); 21600 to 46600 ng/mL in data set [3] (setting [4]); 16300 to 38300 ng/mL in data set [3] (setting [5]); 300 to 9000 ng/mL in data set [3] (setting [6]). Moreover, the “% Bioverfügbarkeit” value in data set [3] (setting [7]) came to 17.3 ± 4.8%; in data set [3] (setting [5]), 17.1 ± 5.0%; in data set [3] (setting [6]) it was 4.3 ± 2.8%.

(Values after EP0418674A1, “Pharmaceutical preparations for enhanced absorption of antibacterial compounds” (priority 1989, dated 1991).)
